# Experimental data taken from patent US11236129B2, “IL-17A binding peptides and medical uses thereof” (Dompe' Farmaceutici S.P.A., priority 2018, dated 2022).
# Read-outs that look alike come from different tables or passages of the source. Residues, ends and D or L forms follow the SMILES beside them.
# Tests used:
# [1] = format: physicochemical; conditions: pH 7.8
# Procedure: Each lyophilized peptide was weighed in an amber vial. A calculated volume of phosphate buffered solution at pH 7.8 was added in order to directly obtain 10 mM Stock Solutions. The recovered suspensions were stirred for 30 minutes by orbital shaker incubator at 37° C. Subsequent dilutions were performed to obtain the more diluted stock solutions for the less soluble compounds.
# In order to evaluate the stability and the solubility, all the stock solutions were stored at 25° C. The title was evaluated by UHPLC-MS analysis in comparison with the standard solutions, at 3 time points: T0, 3 days, 1 week.
# The chromatographic profile was evaluated for the quantitative assay while the MS spectra were detected as support in the stability studies.
# Each peptide was weighed and directly diluted at 100 μM with the phosphate buffer at pH 7.8. The solutions were stirred for 5 minutes by vortex and heated at 37° C. for 20 minutes. The obtained standard solution was stored at 25° C. in the dark under controlled temperature.
# A portion of the stock solutions was collected in an amber vial and diluted to 100 μM by phosphate buffer at pH 7.8 (dilution factor, 1:100).
# Reversed-phase UHPLC was performed operating at a flow rate of 0.3 ml/min with a Luna Omega Polar C18 column ([…] 1.6 μm, 2.1×100 mm). Solvent A was 0.5% Formic Acid in water and solvent B was 0.5% Formic Acid in acetonitrile. First, samples were loaded onto the column and washed isocratically at 10% B for 3 min. Then, a gradient of 10-95% B was run over 22 min, held at 95% for 2 min, and then decreased to 10% over 1 min and held, for the pressure stabilization, for 5 min. UV Absorption was monitored by DAD (220-400 nm). ESI-MS ion trap was used for the monitoring of TIC.
# [2] = target: IL-17RA/IL17RC dimerization induced by IL-17A (Homo sapiens, UniProt Q16552); assay: IL-17RA/IL17RC dimerization assay in response to IL-17A (PathHunter Cytokine Receptor Assay); format: cell-based; conditions: IL-17A at EC80; read-out: IC50 in IL-17RA/IL7RC dimerization assay
# Sequence of IL-17RA/IL17RC dimerization induced by IL-17A (Q16552 24-155): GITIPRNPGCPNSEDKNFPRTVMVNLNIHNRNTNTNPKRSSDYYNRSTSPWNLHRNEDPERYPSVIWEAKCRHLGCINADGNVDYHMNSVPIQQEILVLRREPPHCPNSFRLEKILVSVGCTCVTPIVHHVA
# Procedure, shortened: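 Receptor dimerization was read as chemiluminescence from complemented β-galactosidase after IL-17A at EC80 concentration for 6–16 h at 37 °C. Peptides were added 60 min before agonist, at 37 °C or room temperature, with 1% vehicle. Percent inhibition used the EC80-stimulated and vehicle wells as references.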
# [3] = Isoelectric point, log D and log P (SiriusT3); format: physicochemical; conditions: for IP (isoelectric point): 25±1° C., 0.15 M KCl
# Procedure: The main physicochemical properties (Isoelectric point (IP), log D (7.4) and log P) of the peptides of Table 8 below were determined by using the SiriusT3 apparatus (Sirius Analytical Instruments Ltd., East Sussex, UK) equipped with an Ag/AgCl double junction reference pH electrode, a Sirius D-PAS spectrometer and a turbidity sensing device. […] An overhead stirrer was used and a temperature probe (Peltier controller) monitored the temperature during the course of the titration. The titration experiments were conducted in 0.15 M KCl Ionic Strength Adjusted solution (ISA water) under a nitrogen atmosphere at a temperature of 25±1° C. All tests were performed using standardized 0.5 M KOH and 0.5 M HCl as titration reagents, for the partition coefficient tests a saturated Octanol in ISA water (5% of ISA water) was used as partition solvent. The pKas were determined by potentiometric method by pH-metric titration. The powder (around 0.5 mg) was dissolved in 1.5 ml of ISA water and the titration was performed in triplicate in the pH range 2.0−12.0.
# [4] = octanol/ISA water, read-out: logP
# [5] = pH 7.4, pH 7.4, octanol/ISA water, read-out: Log D (7.4)
Structure (SMILES),solubility [1] [mM],IC50 [2] [µM],IP (isoelectric point) [3],"logP [3, 4]","logD [3, 5]",logP ([3]; logP),"logD ([3]; pH 7.4, Log D (7.4))"
CC[C@H](C)[C@H](NC(=O)[C@H](Cc1c[nH]c2ccccc12)NC(=O)[C@H](CCC(=O)O)NC(=O)[C@H](Cc1ccc(O)cc1)NC(=O)[C@H](CC(C)C)NC(=O)[C@H](CC(=O)O)NC(=O)[C@H](C)NC(=O)[C@@H]1CCCN1C(=O)[C@@H](NC(=O)[C@@H](NC(=O)[C@@H](NC(=O)[C@H](CCSC)NC(=O)[C@@H](NC(C)=O)C(C)C)C(C)C)[C@@H](C)O)[C@@H](C)CC)C(=O)N[C@@H](CCC(=O)O)C(=O)N[C@@H](CCC(=O)O)C(=O)N[C@H](C(=O)N[C@@H](Cc1c[nH]c2ccccc12)C(=O)N[C@@H](Cc1c[nH]c2ccccc12)C(=O)N[C@@H](CCC(=O)O)C(=O)N[C@H](C(=O)N[C@@H](Cc1c[nH]c2ccccc12)C(=O)N[C@@H](Cc1c[nH]c2ccccc12)C(N)=O)[C@@H](C)O)[C@@H](C)O [SEQ ID NO: 23] (Ac-VMVTIPADLYEWIEETWWETWW-NH2),≥ 0.05,< 1,4.26,1.01,-2.24,,
CC[C@H](C)[C@H](NC(=O)[C@H](Cc1c[nH]c2ccccc12)NC(=O)[C@H](CCC(=O)O)NC(=O)[C@H](Cc1ccc(O)cc1)NC(=O)[C@H](CC(C)C)NC(=O)[C@H](CC(=O)O)NC(=O)[C@H](C)NC(=O)[C@@H]1CCCN1C(=O)[C@@H](NC(=O)[C@@H](NC(=O)[C@@H](NC(=O)[C@H](CCSC)NC(=O)[C@@H](NC(C)=O)C(C)C)C(C)C)[C@@H](C)O)[C@@H](C)CC)C(=O)N[C@@H](CCC(=O)O)C(=O)N[C@@H](CCC(=O)O)C(=O)N[C@@H](CCCNC(=N)N)C(=O)N[C@@H](CCCNC(=N)N)C(=O)N[C@@H](CCCNC(=N)N)C(N)=O [SEQ ID NO: 20] (Ac-VMVTIPADLYEWIEERRR-NH2),≥ 0.1,< 1,11.29,,-3.69,,
CC[C@H](C)[C@H](NC(C)=O)C(=O)N[C@@H](Cc1c[nH]cn1)C(=O)N[C@H](C(=O)N[C@H](C(=O)N[C@H](C(=O)N1CCC[C@H]1C(=O)N[C@@H](C)C(=O)N[C@@H](CC(=O)O)C(=O)N[C@@H](CC(C)C)C(=O)N[C@@H](Cc1ccc(O)cc1)C(=O)N[C@@H](CC(=O)O)C(=O)N[C@@H](Cc1c[nH]c2ccccc12)C(=O)N[C@H](C(=O)N[C@@H](CC(N)=O)C(=O)N[C@@H](CCCCN)C(N)=O)[C@@H](C)CC)[C@@H](C)CC)[C@@H](C)O)C(C)C [SEQ ID NO: 6] (Ac-IHVTIPADLYDWINK-NH2),> 10,< 0.4,5.14,,,-0.37,-3.65
CC[C@H](C)[C@H](NC(C)=O)C(=O)N[C@@H](Cc1c[nH]cn1)C(=O)N[C@H](C(=O)N[C@H](C(=O)N[C@H](C(=O)N1CCC[C@H]1C(=O)N[C@@H](C)C(=O)N[C@@H](CC(=O)O)C(=O)N[C@@H](CC(C)C)C(=O)N[C@@H](Cc1c[nH]c2ccccc12)C(=O)N[C@@H](CC(=O)O)C(=O)N[C@@H](Cc1c[nH]c2ccccc12)C(=O)N[C@H](C(=O)N[C@@H](CC(N)=O)C(=O)N[C@@H](CCCNC(=N)N)C(N)=O)[C@@H](C)CC)[C@@H](C)CC)[C@@H](C)O)C(C)C [SEQ ID NO: 10] (Ac-IHVTIPADLWDWINR-NH2),> 10,< 0.4,5.14,,,0.09,-3.66
CC[C@H](C)[C@H](NC(=O)[C@H](Cc1c[nH]c2ccccc12)NC(=O)[C@H](CCC(=O)O)NC(=O)[C@H](Cc1ccc(O)cc1)NC(=O)[C@H](CC(C)C)NC(=O)[C@H](CC(=O)O)NC(=O)[C@H](C)NC(=O)[C@@H]1CCCN1C(=O)[C@@H](NC(=O)[C@@H](NC(=O)[C@@H](NC(=O)[C@H](CCSC)NC(=O)[C@@H](NC(C)=O)C(C)C)C(C)C)[C@@H](C)O)[C@@H](C)CC)C(=O)N[C@@H](CCC(=O)O)C(=O)N[C@@H](CCC(=O)O)C(=O)N[C@H](C(=O)N1CCC[C@H]1C(=O)NCC(=O)N[C@@H](CCCCN)C(=O)NCC(N)=O)C(C)C [SEQ ID NO: 26] (Ac-VMVTIPADLYEWIEEVPGKG-NH2),> 10,< 1,8.13,0.69,0.148,,

# Next, values leading:
solubility [1] [mM],IC50 [2] [µM],IP (isoelectric point) [3],"logP [3, 4]","logD [3, 5]",logP ([3]; logP),"logD ([3]; pH 7.4, Log D (7.4))",Structure (SMILES)
> 10,< 1,12.25,,,,,CC[C@H](C)[C@H](NC(=O)[C@H](Cc1c[nH]c2ccccc12)NC(=O)[C@H](CCC(=O)O)NC(=O)[C@H](Cc1ccc(O)cc1)NC(=O)[C@H](CC(C)C)NC(=O)[C@H](CC(=O)O)NC(=O)[C@H](C)NC(=O)[C@@H]1CCCN1C(=O)[C@@H](NC(=O)[C@@H](NC(=O)[C@@H](NC(=O)[C@H](CCSC)NC(=O)[C@@H](NC(=O)[C@H](CCCNC(=N)N)NC(=O)[C@H](CCCNC(=N)N)NC(=O)[C@H](CCCNC(=N)N)NC(=O)[C@H](CCCNC(=N)N)NC(=O)[C@H](CCCNC(=N)N)NC(=O)[C@H](CCCNC(=N)N)NC(=O)[C@H](CCCNC(=N)N)NC(=O)[C@H](CCCNC(=N)N)NC(C)=O)C(C)C)C(C)C)[C@@H](C)O)[C@@H](C)CC)C(=O)N[C@@H](CCC(=O)O)C(=O)N[C@@H](CCC(=O)O)C(N)=O [SEQ ID NO: 29] (Ac-RRRRRRRRVMVTIPADLYEWIEE-NH2)
≥ 0.1,< 1,8.13,-1.09,-1.24,,,CC[C@H](C)[C@H](NC(=O)[C@H](Cc1c[nH]c2ccccc12)NC(=O)[C@H](CCC(=O)O)NC(=O)[C@H](Cc1ccc(O)cc1)NC(=O)[C@H](CC(C)C)NC(=O)[C@H](CC(=O)O)NC(=O)[C@H](C)NC(=O)[C@@H]1CCCN1C(=O)[C@@H](NC(=O)[C@@H](NC(=O)[C@@H](NC(=O)[C@H](CCSC)NC(=O)[C@@H](NC(=O)CNC(=O)[C@H](CCCCN)NC(=O)CNC(=O)[C@@H]1CCCN1C(=O)[C@@H](NC(C)=O)C(C)C)C(C)C)C(C)C)[C@@H](C)O)[C@@H](C)CC)C(=O)N[C@@H](CCC(=O)O)C(=O)N[C@@H](CCC(=O)O)C(N)=O [SEQ ID NO: 36] (Ac-VPGKGVMVTIPADLYEWIEE-NH2)
> 10,< 0.2,5.14,,-3.9,,,CC[C@H](C)[C@H](NC(=O)[C@H](Cc1c[nH]c2ccccc12)NC(=O)[C@H](CCC(=O)O)NC(=O)[C@H](Cc1ccc(O)cc1)NC(=O)[C@H](CC(C)C)NC(=O)[C@H](CC(=O)O)NC(=O)[C@H](C)NC(=O)[C@@H]1CCCN1C(=O)[C@@H](NC(=O)[C@@H](NC(=O)[C@@H](NC(=O)[C@H](CCSC)NC(=O)[C@@H](NC(C)=O)C(C)C)C(C)C)[C@@H](C)O)[C@@H](C)CC)C(=O)N[C@@H](CCC(=O)O)C(=O)N[C@@H](CCC(=O)O)C(=O)N[C@H](C(=O)N1CCC[C@H]1C(=O)NCC(=O)N[C@@H](C)C(=O)NCC(=O)N[C@H](C(=O)N1CCC[C@H]1C(=O)NCC(=O)N[C@@H](C)C(=O)NCC(N)=O)C(C)C)C(C)C [SEQ ID NO: 37] (Ac-VMVTIPADLYEWIEEVPGAGVPGAG-NH2)
< 0.05,< 1,5.14,-5.43,-3.38,,,CC[C@H](C)[C@H](NC(=O)[C@H](Cc1c[nH]c2ccccc12)NC(=O)[C@H](CCC(=O)O)NC(=O)[C@H](Cc1ccc(O)cc1)NC(=O)[C@H](CC(C)C)NC(=O)[C@H](CC(=O)O)NC(=O)[C@H](C)NC(=O)[C@@H]1CCCN1C(=O)[C@@H](NC(=O)[C@@H](NC(=O)[C@@H](NC(=O)[C@H](CCSC)NC(=O)[C@@H](NC(=O)CNC(=O)[C@H](Cc1c[nH]c2ccccc12)NC(=O)CNC(=O)[C@@H]1CCCN1C(=O)[C@@H](NC(C)=O)C(C)C)C(C)C)C(C)C)[C@@H](C)O)[C@@H](C)CC)C(=O)N[C@@H](CCC(=O)O)C(=O)N[C@@H](CCC(=O)O)C(N)=O [SEQ ID NO: 34] (Ac-VPGWGVMVTIPADLYEWIEE-NH2)
